According to paper PMC10712727, “Safety, Tolerability, and Pharmacokinetics of Senaparib, a Novel PARP1/2 Inhibitor, in Chinese Patients With Advanced Solid Tumors: A Phase I Trial” (The Oncologist, 2023):

Test system: patients with advanced solid tumors
Assay: Safety: treatment-emergent and senaparib-related adverse events graded per NCI CTCAE v4.03
Type: in vivo
Details: for ALT increased, All / ALT increased, Gr≥3 / AST increased, All / AST increased, Gr≥3 / Abdominal distension, All / Abdominal distension, Gr≥3 / Anemia (incl. hemoglobin decreased), All / Anemia (incl. hemoglobin decreased), Gr≥3 / Appetite decreased, All / Appetite decreased, Gr≥3 / Asthenia, All / Asthenia, Gr≥3 / Blood bilirubin increased, All / Blood bilirubin increased, Gr≥3 / Blood creatinine increased, All / Blood creatinine increased, Gr≥3 / Hypokalemia, All / Hypokalemia, Gr≥3 / Hyponatremia, All / Hyponatremia, Gr≥3 / Nausea, All / Nausea, Gr≥3 / Neutrophil count decreased, All / Neutrophil count decreased, Gr≥3 / Pain in extremity, All / Pain in extremity, Gr≥3 / Platelet count decreased, All / Platelet count decreased, Gr≥3 / Protein in urine, All / Protein in urine, Gr≥3 / Vomiting, All / Vomiting, Gr≥3 / WBC decreased, All / WBC decreased, Gr≥3: TEAE
Method: This phase I, open-label, multicenter, dose-escalation, and dose-expansion study was conducted at three national clinical institutions in China. […] At baseline, all patients enrolled in the dose-escalation phase had to have at least one evaluable lesion, and those in the dose-expansion period had to have at least one measurable lesion, according to Response Evaluation Criteria in Solid Tumors version 1.1 (RECIST v1.1).[16] Entry to the dose-expansion cohort required the presence of a BRCA mutation, with the exception of patients with ovarian carcinoma, fallopian tube carcinoma, and primary peritoneal carcinoma. Full study eligibility criteria are provided in Supplementary Table S1.
Dose escalation was conducted using a modified Fibonacci 3 + 3 method (Supplementary Fig. S1).[17] Patients were administered oral senaparib from a planned starting dose of 2 mg once daily (QD), with preliminary dose escalation to 120 mg via nine dose groups, in order of their entry into the study. At a given dose level, each patient received a single dose of senaparib followed by a 7-day washout period. They then entered a continuous dosing period to confirm the safety and PK profile, in which they received senaparib QD from day 1 to day 21 of each 3-week cycle. Progression to the next higher dose required approval from the Data Safety Monitoring Committee (DSMC) upon review of the safety and PK data of the previous dose. A 50-mg twice-daily (BID) dosing group was added (planned enrollment, n = 6 patients) based on a DSMC review of the safety, PK, and efficacy analysis of the completed QD dose groups in the phase I clinical trial of senaparib dose escalation in Australia (NCT03507543), which commenced prior to the start of this trial.
The dose-expansion period included 3 populations: dose groups in which at least one patient achieved complete response (CR) or partial response (PR) per RECIST v1.1[16] and 1 dose group higher (evaluated for safety), as well as the dose group at the maximum tolerated dose (MTD)/recommended phase II dose (RP2D). Each of these groups included those patients in the respective dose-escalation group plus a planned additional 10 patients (approximately 20 patients in the MTD/RP2D group) with BRCA^mut+ solid tumors (ovarian, breast, or prostate cancer were preferred, and ovarian cancer could be BRCA wild type). Patients received senaparib monotherapy orally QD or BID (50-mg dose only) over each 3-week cycle until disease progression or unacceptable toxicity.
DLTs were predefined toxicities (Supplementary Table S2) recorded over the 7 days following the single-dose administration of senaparib and during the first treatment cycle (day 1-day 21) for each dose group in the dose-escalation period only. The MTD was defined as the maximum dose at which ≤1/6 patients experienced a DLT. Senaparib PK parameters were derived from blood samples collected from patients after the single administration, and at regular intervals during the first cycle of the dose-escalation and dose-expansion periods. Plasma concentrations of senaparib were determined using high-performance liquid chromatography-tandem mass spectrometry. Tumor response was assessed every 6 weeks per RECIST v1.1,[16] recording objective response rate (ORR), disease control rate (DCR), duration of response (DOR), and progression-free survival (PFS) by dose level for all patients and for those harboring BRCA^mut+ tumors.

O=C(c1cc(Cn2c(=O)[nH]c(=O)c3c(F)cccc32)ccc1F)N1CCN(c2ncccn2)CC1 [Senaparib]
TEAEs leading to death, patients (120 mg QD n = 4): 0 n (%) | TEAEs leading to dose discontinuation, events (120 mg QD n = 4): 2 n ev | TEAEs leading to dose discontinuation, patients (120 mg QD n = 4): 1 (25.0) n (%) | TEAEs leading to dose interruption, events (120 mg QD n = 4): 3 n ev | TEAEs leading to dose interruption, patients (120 mg QD n = 4): 2 (50.0) n (%) | TEAEs leading to dose reduction, events (120 mg QD n = 4): 0 n ev | TEAEs leading to dose reduction, patients (120 mg QD n = 4): 0 n (%) | TRAEs Grade ≥3, events (120 mg QD n = 4): 6 n ev | TRAEs Grade ≥3, patients (120 mg QD n = 4): 3 (75.0) n (%) | TRAEs, events (120 mg QD n = 4): 47 n ev | TRAEs, patients (120 mg QD n = 4): 4 (100) n (%) | Vomiting TRAE, All (120 mg QD n = 4): 1 (25.0) n (%) | Vomiting TRAE, Gr≥3 (120 mg QD n = 4): 0 n (%) | WBC decreased TRAE, All (120 mg QD n = 4): 4 (100) n (%) | WBC decreased TRAE, Gr≥3 (120 mg QD n = 4): 0 n (%) | Grade ≥3 TRAEs (2-, 10-, 40-, and 60-mg dose groups): no grade ≥3 TRAEs | Grade ≥3 TRAEs, incidence (highest) (120-mg dose group): 75.0% | ALT increased, All (2 mg QD n = 1): 0 n (%) | ALT increased, Gr≥3 (2 mg QD n = 1): 0 n (%) | AST increased, All (2 mg QD n = 1): 0 n (%) | AST increased, Gr≥3 (2 mg QD n = 1): 0 n (%) | Abdominal distension, All (2 mg QD n = 1): 0 n (%) | Abdominal distension, Gr≥3 (2 mg QD n = 1): 0 n (%) | Anemia (incl. hemoglobin decreased), All (2 mg QD n = 1): 0 n (%) | Anemia (incl. hemoglobin decreased), Gr≥3 (2 mg QD n = 1): 0 n (%) | Appetite decreased, All (2 mg QD n = 1): 1 (100) n (%) | Appetite decreased, Gr≥3 (2 mg QD n = 1): 0 n (%) | Asthenia, All (2 mg QD n = 1): 1 (100) n (%) | Asthenia, Gr≥3 (2 mg QD n = 1): 0 n (%) | Blood bilirubin increased, All (2 mg QD n = 1): 0 n (%) | Blood bilirubin increased, Gr≥3 (2 mg QD n = 1): 0 n (%) | Blood creatinine increased, All (2 mg QD n = 1): 0 n (%) | Blood creatinine increased, Gr≥3 (2 mg QD n = 1): 0 n (%) | Hypokalemia, All (2 mg QD n = 1): 1 (100) n (%) | Hypokalemia, Gr≥3 (2 mg QD n = 1): 0 n (%) | Hyponatremia, All (2 mg QD n = 1): 0 n (%) | Hyponatremia, Gr≥3 (2 mg QD n = 1): 0 n (%) | Nausea, All (2 mg QD n = 1): 0 n (%) | Nausea, Gr≥3 (2 mg QD n = 1): 0 n (%) | Neutrophil count decreased, All (2 mg QD n = 1): 0 n (%) | Neutrophil count decreased, Gr≥3 (2 mg QD n = 1): 0 n (%) | Pain in extremity, All (2 mg QD n = 1): 0 n (%) | Pain in extremity, Gr≥3 (2 mg QD n = 1): 0 n (%) | Platelet count decreased, All (2 mg QD n = 1): 0 n (%) | Platelet count decreased, Gr≥3 (2 mg QD n = 1): 0 n (%) | Protein in urine, All (2 mg QD n = 1): 0 n (%) | Protein in urine, Gr≥3 (2 mg QD n = 1): 0 n (%) | Vomiting, All (2 mg QD n = 1): 0 n (%) | Vomiting, Gr≥3 (2 mg QD n = 1): 0 n (%) | WBC decreased, All (2 mg QD n = 1): 0 n (%) | WBC decreased, Gr≥3 (2 mg QD n = 1): 0 n (%) | ALT increased, All (5 mg QD n = 3): 0 n (%) | ALT increased, Gr≥3 (5 mg QD n = 3): 0 n (%) | AST increased, All (5 mg QD n = 3): 0 n (%) | AST increased, Gr≥3 (5 mg QD n = 3): 0 n (%) | Abdominal distension, All (5 mg QD n = 3): 1 (33.3) n (%) | Abdominal distension, Gr≥3 (5 mg QD n = 3): 0 n (%) | Anemia (incl. hemoglobin decreased), All (5 mg QD n = 3): 2 (66.7) n (%) | Anemia (incl. hemoglobin decreased), Gr≥3 (5 mg QD n = 3): 1 (33.3) n (%) | Appetite decreased, All (5 mg QD n = 3): 1 (33.3) n (%) | Appetite decreased, Gr≥3 (5 mg QD n = 3): 0 n (%) | Asthenia, All (5 mg QD n = 3): 2 (66.7) n (%) | Asthenia, Gr≥3 (5 mg QD n = 3): 0 n (%) | Blood bilirubin increased, All (5 mg QD n = 3): 1 (33.3) n (%) | Blood bilirubin increased, Gr≥3 (5 mg QD n = 3): 0 n (%) | Blood creatinine increased, All (5 mg QD n = 3): 0 n (%) | Blood creatinine increased, Gr≥3 (5 mg QD n = 3): 0 n (%) | Hypokalemia, All (5 mg QD n = 3): 0 n (%) | Hypokalemia, Gr≥3 (5 mg QD n = 3): 0 n (%) | Hyponatremia, All (5 mg QD n = 3): 0 n (%) | Hyponatremia, Gr≥3 (5 mg QD n = 3): 0 n (%) | Nausea, All (5 mg QD n = 3): 1 (33.3) n (%) | Nausea, Gr≥3 (5 mg QD n = 3): 0 n (%) | Neutrophil count decreased, All (5 mg QD n = 3): 1 (33.3) n (%) | Neutrophil count decreased, Gr≥3 (5 mg QD n = 3): 0 n (%) | Pain in extremity, All (5 mg QD n = 3): 1 (33.3) n (%) | Pain in extremity, Gr≥3 (5 mg QD n = 3): 1 (33.3) n (%) | Platelet count decreased, All (5 mg QD n = 3): 2 (66.7) n (%) | Platelet count decreased, Gr≥3 (5 mg QD n = 3): 0 n (%) | Protein in urine, All (5 mg QD n = 3): 0 n (%) | Protein in urine, Gr≥3 (5 mg QD n = 3): 0 n (%) | Vomiting, All (5 mg QD n = 3): 0 n (%) | Vomiting, Gr≥3 (5 mg QD n = 3): 0 n (%) | WBC decreased, All (5 mg QD n = 3): 1 (33.3) n (%) | WBC decreased, Gr≥3 (5 mg QD n = 3): 0 n (%) | ALT increased, All (10 mg QD n = 3): 1 (33.3) n (%) | ALT increased, Gr≥3 (10 mg QD n = 3): 0 n (%) | AST increased, All (10 mg QD n = 3): 1 (33.3) n (%) | AST increased, Gr≥3 (10 mg QD n = 3): 0 n (%) | Abdominal distension, All (10 mg QD n = 3): 0 n (%) | Abdominal distension, Gr≥3 (10 mg QD n = 3): 0 n (%) | Anemia (incl. hemoglobin decreased), All (10 mg QD n = 3): 1 (33.3) n (%) | Anemia (incl. hemoglobin decreased), Gr≥3 (10 mg QD n = 3): 0 n (%) | Appetite decreased, All (10 mg QD n = 3): 1 (33.3) n (%) | Appetite decreased, Gr≥3 (10 mg QD n = 3): 0 n (%) | Asthenia, All (10 mg QD n = 3): 0 n (%) | Asthenia, Gr≥3 (10 mg QD n = 3): 0 n (%) | Blood bilirubin increased, All (10 mg QD n = 3): 0 n (%) | Blood bilirubin increased, Gr≥3 (10 mg QD n = 3): 0 n (%) | Blood creatinine increased, All (10 mg QD n = 3): 0 n (%) | Blood creatinine increased, Gr≥3 (10 mg QD n = 3): 0 n (%) | Hypokalemia, All (10 mg QD n = 3): 0 n (%) | Hypokalemia, Gr≥3 (10 mg QD n = 3): 0 n (%) | Hyponatremia, All (10 mg QD n = 3): 0 n (%) | Hyponatremia, Gr≥3 (10 mg QD n = 3): 0 n (%) | Nausea, All (10 mg QD n = 3): 0 n (%) | Nausea, Gr≥3 (10 mg QD n = 3): 0 n (%) | Neutrophil count decreased, All (10 mg QD n = 3): 0 n (%) | Neutrophil count decreased, Gr≥3 (10 mg QD n = 3): 0 n (%) | Pain in extremity, All (10 mg QD n = 3): 0 n (%) | Pain in extremity, Gr≥3 (10 mg QD n = 3): 0 n (%) | Platelet count decreased, All (10 mg QD n = 3): 0 n (%) | Platelet count decreased, Gr≥3 (10 mg QD n = 3): 0 n (%) | Protein in urine, All (10 mg QD n = 3): 1 (33.3) n (%) | Protein in urine, Gr≥3 (10 mg QD n = 3): 0 n (%) | Vomiting, All (10 mg QD n = 3): 0 n (%)
